± gives the expanded uncertainty stated by the source.
How the values were obtained:
[1] = Crystal; DTA
[2] = Molar enthalpy of transition or fusion; conditions: Crystal; DSC
[3] = molar heat capacity at constant pressure; conditions: 101.33 kPa, Crystal

ON=Cc1ccccn1 [2-pyridinealdoxime]
Conditions	Molar enthalpy of transition or fusion [kcal/mol]	Normal melting temperature [°C]
[1]	–	113.08 ± 0.5
[2]	4.78 ± 0.143	–

[3]
Conditions	molar heat capacity at constant pressure [J/K/mol]
80.46 K	51.68 ± 0.57
84.39 K	53.78 ± 0.59
87.27 K	55.38 ± 0.6
90.22 K	57.07 ± 1
93.26 K	58.78 ± 1
96.22 K	60.42 ± 1
99.1 K	61.8 ± 1
102.07 K	63.16 ± 1.1
105.13 K	64.65 ± 1.1
108.12 K	65.95 ± 1.1
111.05 K	67.4 ± 1.1
113.93 K	68.69 ± 1.1
116.9 K	69.94 ± 1.1
119.96 K	71.33 ± 1.1
122.97 K	72.93 ± 1.1
125.94 K	74.14 ± 1.1
128.85 K	75.41 ± 1.1
131.74 K	76.56 ± 1.1
134.71 K	77.89 ± 1.1
137.77 K	79.05 ± 1.1
140.8 K	80.49 ± 1.1
143.79 K	81.65 ± 1.1
146.74 K	82.72 ± 1.1
149.66 K	83.99 ± 1.1
152.56 K	85.27 ± 1.1
155.54 K	86.71 ± 1.1
158.61 K	87.83 ± 1.2
161.66 K	88.91 ± 1.2
164.67 K	90.3 ± 1.2
167.66 K	91.7 ± 1.2
170.63 K	92.91 ± 1.2
173.58 K	93.88 ± 1.2
176.5 K	95.23 ± 1.2
179.4 K	96.67 ± 1.2
182.38 K	97.92 ± 1.2
185.45 K	99.23 ± 1.2
188.5 K	100.67 ± 1.2
191.52 K	101.97 ± 1.2
194.53 K	103.16 ± 1.2
197.5 K	104.64 ± 1.2
200.47 K	106.06 ± 1.2
203.41 K	107 ± 1.2
206.33 K	108.59 ± 1.2
209.23 K	109.82 ± 1.2
212.22 K	111.35 ± 1.2
215.29 K	112.9 ± 1.3
218.35 K	113.97 ± 1.3
221.38 K	115.37 ± 1.3
224.38 K	117.31 ± 1.3
227.37 K	118.7 ± 1.3
230.3 K	120 ± 1.3
233.32 K	121.77 ± 1.3
236.35 K	123.52 ± 1.3
239.26 K	124.25 ± 1.3
242.25 K	125.83 ± 1.3
245.32 K	127.09 ± 1.3
248.39 K	128.4 ± 1.3
251.44 K	129.85 ± 1.3
254.47 K	130.36 ± 1.3
257.5 K	131.52 ± 1.3
260.5 K	132.74 ± 1.3
263.49 K	134.49 ± 1.3
266.46 K	136.14 ± 1.3
269.41 K	137.72 ± 1.4
272.35 K	139.5 ± 1.4
275.26 K	140.58 ± 1.4
278.17 K	142.55 ± 1.4
281.06 K	143.7 ± 1.4
284.01 K	145.45 ± 1.4
287.04 K	147.06 ± 1.4
290.04 K	148.68 ± 1.4
293.01 K	149.59 ± 1.4
295.98 K	150.99 ± 1.4
298.93 K	152.1 ± 1.4
301.87 K	153.86 ± 1.4
304.78 K	154.72 ± 1.4
307.69 K	155.91 ± 1.4
310.57 K	157.91 ± 1.4
313.44 K	159.33 ± 1.4
316.29 K	160.28 ± 1.4
319.11 K	161.83 ± 1.4
321.92 K	163.28 ± 1.5
324.8 K	164.64 ± 1.5
327.74 K	165.88 ± 1.5
330.66 K	167.18 ± 1.5
333.57 K	168.11 ± 1.5
336.45 K	169.62 ± 1.5
339.31 K	171.01 ± 1.5
342.16 K	172.57 ± 1.5
344.98 K	173.51 ± 1.5
347.78 K	174.14 ± 1.5
350.55 K	175.82 ± 1.5
353.29 K	176.47 ± 1.5
355.96 K	177.08 ± 1.5
358.4 K	178.59 ± 1.5
360.61 K	179.15 ± 1.5
363.31 K	180.38 ± 1.5
365.84 K	181.56 ± 1.5
367.88 K	182.97 ± 1.5
370.49 K	183.67 ± 1.5
372.97 K	184.42 ± 1.5

— the NIST ThermoML archive (doi:10.1016/j.jct.2006.09.016)
